Assay results taken from BindingDB's records for patent US11111233 (Shenzhen Targetrx, 2021).

What was measured:
[1] = biological target: Epidermal growth factor receptor (Homo sapiens, UniProt P00533); assay: Kinase Inhibition Assay
Protocol: (§1) Then, it was diluted in DMSO with a 3-fold series gradient dilution for 10 times. […] The corresponding substrate and ATP were added and reacted at room temperature for 20 minutes (in which a negative and a positive control were set: the negative control is blank and the positive control is erlotinib). […] The inhibitions of the enzyme activity by the compounds at different concentrations were then fitted using Graphpad 5.0 software according to the four-parameter equation, and the IC50 values were calculated.

[2] = biological target: Epidermal growth factor receptor [T790M,L858R] (Homo sapiens, UniProt P00533, L858R/T790M); assay: Kinase Inhibition Assay
Sequence of Epidermal growth factor receptor [T790M,L858R] (P00533 25-1210 T790M/L858R limits assumed): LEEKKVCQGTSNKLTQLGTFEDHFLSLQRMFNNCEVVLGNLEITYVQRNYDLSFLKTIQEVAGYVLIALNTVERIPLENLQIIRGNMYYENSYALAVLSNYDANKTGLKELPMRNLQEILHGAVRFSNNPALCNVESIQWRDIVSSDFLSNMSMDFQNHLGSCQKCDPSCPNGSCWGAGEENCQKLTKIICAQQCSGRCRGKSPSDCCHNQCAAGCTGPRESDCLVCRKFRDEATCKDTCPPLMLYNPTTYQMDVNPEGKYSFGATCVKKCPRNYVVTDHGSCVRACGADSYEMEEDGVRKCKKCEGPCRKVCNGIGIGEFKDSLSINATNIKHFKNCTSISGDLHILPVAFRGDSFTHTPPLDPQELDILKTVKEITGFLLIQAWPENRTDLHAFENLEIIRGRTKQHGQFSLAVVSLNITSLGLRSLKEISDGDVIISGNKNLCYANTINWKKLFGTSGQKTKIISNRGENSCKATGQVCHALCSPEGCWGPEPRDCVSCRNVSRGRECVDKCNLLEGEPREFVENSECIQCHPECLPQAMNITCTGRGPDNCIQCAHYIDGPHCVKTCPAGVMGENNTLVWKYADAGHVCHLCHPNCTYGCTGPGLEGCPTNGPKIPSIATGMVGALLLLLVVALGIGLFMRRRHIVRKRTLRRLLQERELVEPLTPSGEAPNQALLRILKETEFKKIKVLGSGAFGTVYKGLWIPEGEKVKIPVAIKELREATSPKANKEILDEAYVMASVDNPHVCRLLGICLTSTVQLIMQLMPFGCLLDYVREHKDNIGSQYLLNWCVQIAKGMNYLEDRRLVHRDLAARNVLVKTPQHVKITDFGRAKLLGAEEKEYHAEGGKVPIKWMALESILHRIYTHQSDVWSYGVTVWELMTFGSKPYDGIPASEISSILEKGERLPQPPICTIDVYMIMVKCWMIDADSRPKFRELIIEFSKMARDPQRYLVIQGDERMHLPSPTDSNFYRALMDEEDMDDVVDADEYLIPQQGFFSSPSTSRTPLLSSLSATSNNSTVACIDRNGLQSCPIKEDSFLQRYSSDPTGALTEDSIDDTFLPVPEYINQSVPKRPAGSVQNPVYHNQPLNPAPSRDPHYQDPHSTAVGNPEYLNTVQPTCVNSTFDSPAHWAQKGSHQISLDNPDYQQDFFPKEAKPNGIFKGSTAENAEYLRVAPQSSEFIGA
Protocol: as §1

Sequence of Epidermal growth factor receptor (P00533 whole entry): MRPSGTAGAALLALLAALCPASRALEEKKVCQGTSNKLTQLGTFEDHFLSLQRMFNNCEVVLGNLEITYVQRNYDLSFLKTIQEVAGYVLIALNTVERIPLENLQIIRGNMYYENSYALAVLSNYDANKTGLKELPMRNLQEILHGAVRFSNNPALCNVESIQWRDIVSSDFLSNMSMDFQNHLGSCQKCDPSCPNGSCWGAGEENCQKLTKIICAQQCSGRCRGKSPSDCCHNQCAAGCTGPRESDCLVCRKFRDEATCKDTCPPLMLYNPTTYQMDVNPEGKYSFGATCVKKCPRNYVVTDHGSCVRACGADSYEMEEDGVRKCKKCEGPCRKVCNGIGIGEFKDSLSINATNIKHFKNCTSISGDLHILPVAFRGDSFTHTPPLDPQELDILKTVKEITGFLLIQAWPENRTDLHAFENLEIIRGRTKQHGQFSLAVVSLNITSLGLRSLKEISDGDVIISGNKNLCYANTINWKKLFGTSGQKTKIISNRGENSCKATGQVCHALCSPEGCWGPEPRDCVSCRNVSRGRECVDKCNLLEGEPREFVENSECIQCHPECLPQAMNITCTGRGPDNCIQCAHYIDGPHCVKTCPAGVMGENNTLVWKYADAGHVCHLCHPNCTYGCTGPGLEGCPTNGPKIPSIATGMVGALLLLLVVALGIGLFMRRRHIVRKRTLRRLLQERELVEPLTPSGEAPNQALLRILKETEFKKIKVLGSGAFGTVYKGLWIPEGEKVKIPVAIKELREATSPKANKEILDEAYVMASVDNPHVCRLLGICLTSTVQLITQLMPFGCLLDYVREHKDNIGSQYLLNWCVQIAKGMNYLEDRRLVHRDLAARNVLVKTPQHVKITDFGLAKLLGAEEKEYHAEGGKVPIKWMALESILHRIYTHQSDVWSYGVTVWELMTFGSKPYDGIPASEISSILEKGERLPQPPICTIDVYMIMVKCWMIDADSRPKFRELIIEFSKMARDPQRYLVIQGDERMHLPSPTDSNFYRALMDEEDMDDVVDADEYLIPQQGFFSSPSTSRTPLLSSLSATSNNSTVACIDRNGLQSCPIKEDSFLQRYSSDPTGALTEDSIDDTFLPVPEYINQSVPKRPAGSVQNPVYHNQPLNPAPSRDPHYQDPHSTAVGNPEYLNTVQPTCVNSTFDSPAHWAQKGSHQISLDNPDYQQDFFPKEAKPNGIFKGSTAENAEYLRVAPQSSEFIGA

C=CC(=O)Nc1cc(Nc2nccc(-c3cc(F)c4nc(C)n(C(C)C)c4c3)n2)c(OC)cc1N1CCOCC1 [US11111233, Example 16]
IC50 [1]: > 100 nM

C=CC(=O)Nc1cc(Nc2nccc(-c3cc(F)c4nc(C)n(C(C)C)c4c3)n2)c(OC)cc1OCCN(C)C [US11111233, Example 12]
IC50 [2]: < 1 nM
